Source: US20240083872A1, “CYCLIC AMINE DERIVATIVES HAVING SEROTONIN RECEPTOR BINDING ACTIVITY” (Shionogi & Co., Ltd., priority 2020, published 2024)
pKi: −log10 of the molar value. Like-named read-outs stand apart in the source and are kept apart here.

Legend:
[1] = target: human recombinant 5-HT2A receptor (Homo sapiens (Human), UniProt P28223); test: 5-HT2A receptor binding inhibition test ([3H]-Ketanserin); details: Jump-In HEK cell membrane
Protocol: Test Example 1: 5-HT2A Receptor Binding Inhibition Test
(§1) (Each Experimental Condition)
Cell membrane: Jump-In HEK cell membrane (expressing human recombinant 5-HT2A receptor)
(§2) Assay buffer: Tris-HCl 50 mmol/L (pH 7.4) containing NaCl 120 mmol/L, MgCl2.6H2O 1 mmol/L, KCl 5 mmol/L, 0.1% BSA, and CaCl2 2 mmol/L
Radioactive ligand: [^3H]-Ketanserin around Kd value calculated by the following method
(§3) Non-specific ligand: Serotonin HCl
(§4) The Kd value was calculated when the lot of cell membrane was changed. In advance, 0.5 μL of a 1 mmol/L compound for non-specific binding calculation dissolved in DMSO or DMSO was dispensed into a microplate, and the cell membrane was diluted with an Assay buffer. The radioactive ligand solution was serially diluted and the count was confirmed with a liquid scintillator. Assay buffer containing diluted cell membrane was dispensed into a microplate at 50 μL/well. Then, the radioactive ligand solution was dispensed into a microplate at 50 μL/well, and the plate was sealed. It was allowed to stand at room temperature (25° C.) for 1.5 hours. During this period, 50 mmol/L Tris-HCl (pH 7.4) was dispensed into a GF/B UniFilter plate at 50 μL/well and allowed to stand at 4° C. for 1 hour or longer. After that, filtration was performed with Cell harvester (PerkinElmer). The radioactive ligand solution was dispensed into an empty well of the GF/B UniFilter plate at 10 μL/well. After the GF/B UniFilter plate was dried at room temperature, MicroScinti 20 was dispensed into the GF/B UniFilter plate at 50 μL/well, and the plate was sealed. The GF/B UniFilter plate was allowed to stand overnight at room temperature. The radioactivity of [^3H]-Ketanserin bound to the 5-HT2A receptor was measured using Microbeta2 (PerkinElmer) at a measurement time of 1 min/well. The Saturation curve was drawn from the measured value, and the Kd value was calculated from the slope of the Scatchard Plot.
(§5) (Binding Test of the Compound According to the Present Invention)
(§6) In advance, 0.5 μL of the compound solution dissolved in DMSO was dispensed into a microplate, and the cell membrane and the hot ligand were diluted with Assay buffer, respectively. Then, the Assay buffer containing the diluted cell membrane was dispensed into a microplate at 50 μL/well. Then, the radioactive ligand solution was dispensed into a microplate at 50 μL/well, and the plate was sealed. Then, it was allowed to stand at room temperature (25° C.) for 1.5 hours. During this period, 50 mmol/L Tris-HCl (pH 7.4) was dispensed into a GF/B UniFilter plate at 50 μL/well and allowed to stand at 4° C. for 1 hour or longer. After that, filtration was performed with Cell harvester (PerkinElmer). After the GF/B UniFilter plate was dried at room temperature, MicroScinti 20 was dispensed into the GF/B UniFilter plate at 50 μL/well, and the plate was sealed. The GF/B UniFilter plate was allowed to stand overnight at room temperature. The radioactivity of [^3H]-Ketanserin bound to the 5-HT2A receptor was measured using Microbeta2 (PerkinElmer) at a measurement time of 1 min/well. The non-specific binding was calculated from the radioactivity of [^3H]-Ketanserin in the presence of […] Serotonin HCl with the unlabeled ligand, and the total binding was calculated from the radioactivity of [^3H]-Ketanserin in the absence of the compound according to the present invention (Vehicle). Finally, the Ki value was calculated from the dose-response curve.
(§7) (The binding activity of the compound according to the present invention was calculated from the following binding inhibition rate (%).)
(§8) Inhibition rate (%)=[1−(c−a)/(b−a)]×100 • a; mean cpm of non-specific binding • b; mean cpm of total binding • c; cpm in the presence of the test compound

[2] = target: human recombinant 5-HT2C receptor (Homo sapiens (Human), UniProt P28335); test: 5-HT2C receptor binding inhibition test ([3H]-Mesulergine)
Protocol: as §1
Cell membrane: Jump-In HEK cell membrane (expressing human recombinant 5-HT2C receptor)
as §2
Radioactive ligand: [^3H]-Mesulergine around Kd value calculated by the following method
as §3
as §4, with “[…]” for “4°”, “The radioactivity of [^3H]-Ketanserin bound to the 5-HT2A receptor was measured using Microbeta2 (PerkinElmer) at a measurement time of 1 min/well.” left out
as §5
as §6, with “37° C.” for “room temperature (25° C.)”, “2” for “1.5”, “The radioactivity of [^3H]-Ketanserin bound to the 5-HT2A receptor was measured using Microbeta2 (PerkinElmer) at a measurement time of 1 min/well.” left out, “[^3H]-Mesulergine” for “[^3H]-Ketanserin”
as §7, §8

[3] = Jump-In HEK cell membrane, [3H]-Mesulergine, read-out: h-5-HT2C Ki
[4] = read-out: human serotonin 5-HT2A receptor binding activity, Ki value
[5] = Jump-In HEK cell membrane, [3H]-Mesulergine, read-out: human serotonin 5-HT2C receptor binding inhibitory activity, Ki value

Chain of human recombinant 5-HT2C receptor (P28335 33-458): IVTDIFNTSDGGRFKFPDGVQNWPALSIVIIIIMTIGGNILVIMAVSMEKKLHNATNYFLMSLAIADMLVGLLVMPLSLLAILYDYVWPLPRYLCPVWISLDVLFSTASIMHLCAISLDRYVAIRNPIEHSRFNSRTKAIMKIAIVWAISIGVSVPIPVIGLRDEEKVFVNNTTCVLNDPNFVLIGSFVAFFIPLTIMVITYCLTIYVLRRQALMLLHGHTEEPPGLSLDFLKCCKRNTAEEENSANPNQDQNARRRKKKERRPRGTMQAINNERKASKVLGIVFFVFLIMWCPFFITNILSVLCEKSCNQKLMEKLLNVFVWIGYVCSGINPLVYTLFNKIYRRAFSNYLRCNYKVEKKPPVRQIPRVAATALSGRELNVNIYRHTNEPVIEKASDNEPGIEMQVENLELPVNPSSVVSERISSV
Chain of human recombinant 5-HT2A receptor (P28223 whole entry): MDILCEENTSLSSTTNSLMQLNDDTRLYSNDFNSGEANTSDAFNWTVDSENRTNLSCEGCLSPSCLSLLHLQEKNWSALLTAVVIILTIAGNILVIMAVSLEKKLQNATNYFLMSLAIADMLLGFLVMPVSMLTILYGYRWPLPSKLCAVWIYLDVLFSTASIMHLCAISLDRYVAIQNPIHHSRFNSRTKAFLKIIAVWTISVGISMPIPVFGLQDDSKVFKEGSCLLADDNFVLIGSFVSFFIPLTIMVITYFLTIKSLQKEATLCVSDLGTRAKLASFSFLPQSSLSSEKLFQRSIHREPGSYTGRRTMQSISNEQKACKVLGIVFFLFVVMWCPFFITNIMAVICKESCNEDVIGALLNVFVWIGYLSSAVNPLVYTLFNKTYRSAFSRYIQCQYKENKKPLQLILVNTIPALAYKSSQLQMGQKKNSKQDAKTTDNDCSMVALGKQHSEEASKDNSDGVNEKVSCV

Row | SMILES | pKi ([1]; read-out: h-5-HT2A Ki) | pKi [2, 3] | pKi [1, 4] | pKi [2, 5] | pKi [2]
1 | CCCCOc1ccc(CN(Cc2coc(C)n2)C(=O)CN2CCN(C)CC2)cc1 [Compound I-106] | > 8.00 | > 8.00 | – | – | –
2 | Cc1nc(CN(Cc2ccc(OCC(C)C)c(F)c2)C(=O)NC2CCN(C)CC2)co1 [Compound I-115] | > 8.00 | > 8.00 | – | – | –
3 | CC(C)COc1ccc(CN(Cc2ccn(C)n2)C(=O)N[C@H]2CCN(C)CC23CC3)cc1 [Compound I-037] | – | – | 8.33 | 8.68 | –
4 | CCCCOc1ccc(CN(Cc2coc(C3CC3)n2)C(=O)NC2CCN(C)CC2)cc1 [Compound I-110] | – | – | 9.27 | 9.52 | –
5 | CC(C)COc1ccc(CN(Cc2ccn(C)n2)C(=O)N[C@H]2C[C@H]3CC[C@@H](C2)N3C)cc1 [Compound I-070] | 7.00 to 8.00 | – | – | – | 7.00 to 8.00
6 | CC(C)COc1ccc(CN(Cc2cnn(C)n2)C(=O)NC2CCN(C)CC2)c(F)c1 [Compound I-118] | – | – | 8.99 | 9.43 | –
7 | CCCc1ccc(CN(Cc2coc(C)n2)C(=O)NC2CCN(C)CC2)cc1 [Compound I-108] | > 8.00 | > 8.00 | – | – | –
8 | CC(C)COc1ccc(CN(Cc2cc3ccccc3o2)C(=O)NC2CCN(C)CC2)cc1 [Compound I-033] | – | – | 8.40 | 7.54 | –
9 | CC(C)COc1ccc(CN(Cc2ccn(C)n2)C(=O)CC2CCN(C)CC2)cc1 [Compound I-012] | – | – | 8.22 | 7.48 | –
10 | CCCCOc1ccc(CN(Cc2coc(C)n2)C(=O)NC2CCN(C)CC2)c(F)c1 [Compound I-113] | > 8.00 | > 8.00 | – | – | –
11 | CCCCOc1ccc(CN(Cc2coc(C)n2)C(=O)C(F)C2CCN(C)CC2)cc1F (racemic) [Compound I-124] | > 8.00 | > 8.00 | – | – | –
12 | CCCCOc1ccc(CN(Cc2coc(C)n2)C(=O)N[C@H]2CCN(C)CC23CC3)c(F)c1 [Compound I-091] | > 8.00 | > 8.00 | – | – | –
13 | CCCCOc1ccc(CN(Cc2coc(C(F)F)n2)C(=O)NC2CCN(C)CC2)cc1 [Compound I-109] | – | – | 9.37 | 9.33 | –
14 | CCCCOc1ccc(CN(Cc2coc(C)n2)C(=O)NC2CCN(C)CC2)cc1F [Compound I-087] | > 8.00 | > 8.00 | – | – | –
15 | CC(C)COc1ccc(CN(Cc2ccc(F)cn2)C(=O)N[C@H]2CCNC[C@H]2F)cc1 (single isomer, unassigned) [Compound I-006] | – | – | 9.01 | 8.61 | –
16 | CCCCOc1ccc(CN(Cc2cnn(C)n2)C(=O)N[C@H]2CCN(C)CC23CC3)cc1F [Compound I-096] | > 8.00 | > 8.00 | – | – | –
17 | CC(C)COc1ccc(CN(Cc2ccn(C)n2)C(=O)N[C@H]2CCN(C)C[C@@H]2C)cc1 [Compound I-064] | > 8.00 | > 8.00 | – | – | –
18 | Cc1nc(CN(Cc2ccc(OCC(F)(F)C(F)(F)F)cc2F)C(=O)NC2CCN(C)CC2)co1 [Compound I-121] | > 8.00 | > 8.00 | – | – | –
19 | CN1CCC(NC(=O)N(Cc2cnn(C)n2)Cc2ccc(OCC(F)(F)C(F)(F)F)cc2F)CC1 [Compound I-122] | – | – | 9.08 | 9.55 | –

Second part, led by results:

Row | pKi ([1]; read-out: h-5-HT2A Ki) | pKi [2, 3] | SMILES | pKi [1, 4] | pKi [2, 5] | pKi [2]
20 | 7.00 to 8.00 | 5.30 to 7.00 | CC(C)COc1ccc(CN(Cc2ccn(C)n2)C(=O)NC2(C)CCN(C)CC2)cc1 [Compound I-066] | – | – | –
21 | > 8.00 | > 8.00 | CC(C)COc1ccc(CN(Cc2ccc(F)cn2)C(=O)NC2CCNCC2)cc1 [Compound I-017] | – | – | –
22 | 7.00 to 8.00 | 7.00 to 8.00 | CC(C)COc1ccc(CN(Cc2nccs2)C(=O)NC2CCN(C)CC2)cc1 [Compound I-025] | – | – | –
23 | > 8.00 | 7.00 to 8.00 | Cc1ccc(CN(Cc2ccc(OCC(C)C)cc2)C(=O)OC2CCN(C)CC2)[nH]1 [Compound I-085] | – | – | –
24 | 7.00 to 8.00 | 7.00 to 8.00 | Cc1cc(CN(Cc2ccc(OCC(C)C)cc2)C(=O)NC2CCN(C)CC2)no1 [Compound I-039] | – | – | –
25 | > 8.00 | 7.00 to 8.00 | CC(C)COc1ccc(CN(Cc2ccsc2)C(=O)NC2CCN(C)CC2)cc1 [Compound I-002] | – | – | –
26 | > 8.00 | 7.00 to 8.00 | COc1ccc(CN(Cc2ccc(F)cn2)C(=O)NC2CCN(C)CC2)cc1 [Compound I-042] | – | – | –
27 | 7.00 to 8.00 | 7.00 to 8.00 | COCCN1CCC(NC(=O)N(Cc2ccc(OCC(C)C)cc2)Cc2ccn(C)n2)CC1 [Compound I-063] | – | – | –
28 | 7.00 to 8.00 | 7.00 to 8.00 | CC(C)COc1ccc(CN(Cc2ccn(C)n2)C(=O)NC2C3CCC2CN(C)C3)cc1 (single isomer, unassigned) [Compound I-075] | – | – | –
29 | > 8.00 | > 8.00 | CCCOc1ccc(CN(Cc2ccc(F)cn2)C(=O)NC2CCN(C)CC2)cc1 [Compound I-021] | – | – | –
30 | 7.00 to 8.00 | 7.00 to 8.00 | CC(C)COc1ccc(CN(Cc2ccn(C)n2)C(=O)N[C@H]2[C@@H]3CN(C)C[C@@H]32)cc1 [Compound I-058] | – | – | –
31 | > 8.00 | > 8.00 | CC(C)COc1ccc(CN(Cc2ccn(C)n2)C(=O)N[C@H]2CCNC[C@H]2F)cc1 [Compound I-048] | – | – | –
32 | 7.00 to 8.00 | 5.30 to 7.00 | CCCCOc1ccc(CN(Cc2coc(C)n2)C(=O)CCC2CCNCC2)cc1F [Compound I-127] | – | – | –
33 | 7.00 to 8.00 | 7.00 to 8.00 | CC(C)COc1ccc(CN(Cc2ccn(C)n2)C(=O)N[C@@H]2CCNC[C@H]2F)cc1 (racemic) [Compound I-018] | – | – | –
34 | > 8.00 | 7.00 to 8.00 | Cc1cc(CN(Cc2ccc(OCC(C)C)cc2)C(=O)NC2CCN(C)CC2)nn1C [Compound I-005] | – | – | –
35 | > 8.00 | 7.00 to 8.00 | CC(C)COc1ccc(CN(Cc2ccn(C)n2)C(=O)NC2CC3CC2CN3C)cc1 (centres unmarked) [Compound I-061] | – | – | –
36 | 5.30 to 7.00 | 5.30 to 7.00 | COc1ccc(CN(Cc2ccn(C)n2)C(=O)NC2CCN(C)CC2)nc1 [Compound I-051] | – | – | –
37 | 7.00 to 8.00 | 5.30 to 7.00 | CC(C)COc1ccc(CN(Cc2ccc(C#N)cn2)C(=O)NC2CCN(C)CC2)cc1 [Compound I-032] | – | – | –
